Test results from patent publication US11534441B2, “MAP4K1 inhibitors” (Blueprint Medicines Corporation, priority 2020, dated 2022).

Target: MAP4K1 (HPK1) (Homo sapiens (Human), UniProt Q92918)
Experiment: MAP4K1 (HPK1) biochemical enzymatic activity, electrophoretic mobility shift (EZReader 2), ATP at APPKM (26 μM)
Description: MAP4K1 (HPK1) and relevant off-target enzymatic activity was monitored using the Perkin Elmer electrophoretic mobility shift technology platform—the EZReader 2. […] Within the linear, steady-state phase of the kinase enzymatic reaction, the mixed pool of phosphorylated (product) and non-phosphorylated (substrate) peptides was passed through the microfluidic system of the PerkinElmer EZ Reader 2, under an applied electric potential difference. The presence of the phosphate group on the product peptide provided a difference in mass and charge between that of the substrate peptide, resulting in a separation of the substrate and product pools in the sample (Perrin et al. 2010). As the product and substrate peptide mixture passes the lasers within the instrument, these pools are detected (λex=488 nm, λent=568 nm) and resolved as separate peaks. The ratio between these peaks reflects the activity of the compound at that concentration, in that well, under those conditions.
Inhibitors were dissolved in 100% DMSO at a stock concentration of 10 mM. A 100×, 10-point, 4-fold serial dilution of each inhibitor was created in 100% DMSO either manually or on a Hamilton STAR liquid handler, starting at a relevant concentration, usually 1 mM. A volume of 0.130 μL of each concentration was transferred to the relevant wells of a 384-well plate (Greiner 781 201) in duplicate using a TTPLabtech Mosquito nano-litre dispenser. Using a Multidrop Combi, the remaining constituents of the kinase reaction were added to the 130 nL of dosed compound as follows (see table below for final reaction details):
Enzyme activity assays at the ^APPKM for ATP or 1 mM ATP: In each well of a 384-well plate, 0.1-15 nM of untreated enzyme was incubated in a total of 13 μL of buffer (100 mM HEPES pH 7.5, 0.015% Brij 35, 10 mM MgCl2, 1 mM DTT) with 1.5 μM fluorescent peptid and 20-1000 μM ATP, at 25° C., for 60-180 minutes in the presence or absence of a dosed concentration series of compound (1% DMSO final concentration). The kinase reactions were stopped by the addition of 70 μl of Stop buffer (100 mM HEPES pH 7.5, 0.015% Brij 35, 35 mM EDTA and 0.2% of Coating Reagent 3 (Caliper Lifesciences)). The plates were read on a Caliper EZReader 2 as described above.

MAP4K1 (HPK1), sequence (Q92918 whole entry): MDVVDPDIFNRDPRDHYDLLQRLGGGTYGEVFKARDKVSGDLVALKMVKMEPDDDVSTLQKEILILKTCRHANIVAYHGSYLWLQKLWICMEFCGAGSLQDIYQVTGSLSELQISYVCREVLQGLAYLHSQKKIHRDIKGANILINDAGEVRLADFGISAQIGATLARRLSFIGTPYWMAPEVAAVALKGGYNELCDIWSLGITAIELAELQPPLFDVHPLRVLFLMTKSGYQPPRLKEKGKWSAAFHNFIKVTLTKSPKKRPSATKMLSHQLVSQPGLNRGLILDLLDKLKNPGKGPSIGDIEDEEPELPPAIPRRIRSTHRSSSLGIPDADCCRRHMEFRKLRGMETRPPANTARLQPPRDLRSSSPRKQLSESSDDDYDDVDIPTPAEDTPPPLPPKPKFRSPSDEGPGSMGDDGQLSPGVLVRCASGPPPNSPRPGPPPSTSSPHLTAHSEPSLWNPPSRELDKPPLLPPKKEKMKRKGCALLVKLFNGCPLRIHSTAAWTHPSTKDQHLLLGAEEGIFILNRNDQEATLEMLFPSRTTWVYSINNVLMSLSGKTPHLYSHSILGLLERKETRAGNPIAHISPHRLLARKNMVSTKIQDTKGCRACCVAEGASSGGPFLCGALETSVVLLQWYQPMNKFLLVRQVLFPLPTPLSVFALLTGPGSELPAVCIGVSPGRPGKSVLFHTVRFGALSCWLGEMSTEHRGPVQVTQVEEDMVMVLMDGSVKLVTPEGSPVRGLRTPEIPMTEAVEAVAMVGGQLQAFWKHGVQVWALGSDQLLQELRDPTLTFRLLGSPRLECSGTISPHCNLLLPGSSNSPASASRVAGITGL

Row | IC50 (class designation) [nM] | IC50 (numeric value) [nM] | SMILES
1 | 1.1 to 10 | 5.12 | C[C@@H]1OC(=O)c2ccc(Nc3cc4c([C@](C)(N)C5CC5)cnc(OC5(C)CC5)c4cn3)nc2[C@H]1C [Compound 89]
2 | 1.1 to 10 | 4.54 | C[C@@H]1c2nc(Nc3cc4c([C@@](C)(N)C5CC5)cnc(OC5(C)CC5)c4cn3)ccc2C(=O)O[C@@H]1C [Compound 95]
3 | > 10 | 19.1 | COc1ncc([C@@](C)(N)C2CC2)c2cc(Nc3ccc4c(n3)C(C)(C)OC4=O)ncc12 [Compound 98]
4 | < 0.3 | 0.13 | CC1(C)Cc2nc(Nc3cc4c(C(C)(C)N)ccc(Cl)c4cn3)ccc2C(=O)O1 [Compound 104, 2-((5-(2-Aminopropan-2-yl)-8-chloroisoquinolin-3-yl)amino)-7,7-dimethyl-7,8-dihydro-5H-pyrano[4,3-b]pyridin-5-one]
5 | 0.31 to 1 | 0.62 | CC(C)(N)c1cnc(OC2CC2)c2cnc(Nc3ccc4c(n3)C3(CC3)COC4=O)cc12 [Compound 107]
6 | 0.31 to 1 | 0.5 | C[C@@H]1OC(=O)c2ccc(Nc3cc4c(C(C)(C)N)cnc(OC5CC5)c4cn3)nc2C12CC2 [Compound 120]
7 | < 0.3 | 0.11 | CC[C@@](C)(N)c1cnc(OC2CC2)c2cnc(Nc3ccc4c(n3)[C@](C)(CC)OC4=O)cc12 [Compound 129]
8 | 0.31 to 1 | 0.46 | CC[C@H]1OC(=O)c2ccc(Nc3cc4c(C(C)(C)N)cnc(OC5CC5)c4cn3)nc2[C@@H]1C [Compound 130]
9 | 0.31 to 1 | 0.46 | C[C@@H]1OC(=O)c2ccc(Nc3cc4c(C(C)(C)N)cnc(OC5CC5)c4cn3)nc2C1(C)C [Compound 137]
10 | 0.31 to 1 | 0.31 | CCCOc1ncc([C@](C)(N)CC)c2cc(Nc3ccc4c(n3)CC(C)(C)OC4=O)ncc12 [Compound 143]
11 | 1.1 to 10 | 3.89 | CCCOc1ncc([C@@](C)(N)CC)c2cc(Nc3ccc4c(n3)CC(C)(C)OC4=O)ncc12 [Compound 144]
12 | 1.1 to 10 | 1.77 | CCCOc1ncc([C@@](C)(N)CC)c2cc(Nc3ccc4c(n3)[C@@H](C)[C@H](C)OC4=O)ncc12 [Compound 145]
13 | 1.1 to 10 | 5.24 | C[C@@H]1OC(=O)c2ccc(Nc3cc4c([C@@](C)(N)C5CC5)cnc(NC5CC5)c4cn3)nc2[C@H]1C [Compound 150]
14 | 1.1 to 10 | 1.25 | C[C@@H]1OC(=O)c2ccc(Nc3cc4c(C(C)(C)N)cnc(O[C@@H]5CCOC5)c4cn3)nc2[C@H]1C [Compound 160]
15 | 1.1 to 10 | 6.52 | CC1(C)Cc2nc(Nc3cc4c(C(C)(C)NCCO)cnc(OC5CC5)c4cn3)ccc2C(=O)O1 [Compound 177, 2-((8-Cyclopropoxy-5-(2-((2-hydroxyethyl)amino)propan-2-yl)-2,7-naphthyridin-3-yl)amino)-7,7-dimethyl-7,8-dihydro-5H-pyrano[4,3-b]pyridin-5-one]
16 | 0.31 to 1 | 0.4 | C[C@@H]1OC(=O)c2ccc(Nc3cc4c(C(C)(C)N)cnc(OC5(C)CC5)c4cn3)nc2C1(C)C [Compound 186]
17 | < 0.3 | 0.19 | COC[C@@](C)(N)c1cnc(OC2CC2)c2cnc(Nc3ccc4c(n3)[C@H](C)[C@H](C)OC4=O)cc12 [Compound 190]
18 | 0.31 to 1 | 0.53 | CC[C@@H](N)c1cnc(OC2(C)CC2)c2cnc(Nc3ccc4c(n3)[C@@H](C)C(C)(C)OC4=O)cc12 [Compound 191]
19 | 0.31 to 1 | 0.34 | C[C@@H]1OC(=O)c2ccc(Nc3cc4c(C(C)(C)N)cnc(OC5(C)COC5)c4cn3)nc2[C@H]1C [Compound 197]
20 | 0.31 to 1 | 0.36 | CC1(Oc2ncc(C(C)(C)N)c3cc(Nc4ccc5c(n4)C4(CC4)C(C)(C)OC5=O)ncc23)CC1 [Compound 199]
21 | 0.31 to 1 | 0.48 | COC[C@@](C)(N)c1cnc(OC2CC2)c2cnc(Nc3ccc4c(n3)CC(C)(C)OC4=O)cc12 [Compound 200]
22 | < 0.3 | 0.14 | COC[C@@](C)(N)c1cnc(OC)c2cnc(Nc3ccc4c(n3)[C@@H](C)C(C)(C)OC4=O)cc12 [Compound 201]
23 | 0.31 to 1 | – | CC[C@@H](N)c1ccc(Cl)c2cnc(Nc3ccc4c(n3)[C@@H](C)C(C)(C)OC4=O)cc12 [Compound 209]

More lines, now with the values behind:

Row | SMILES | IC50 (class designation) [nM] | IC50 (numeric value) [nM]
24 | C[C@@H]1c2nc(Nc3cc4c([C@@](C)(N)C5CC5)cnc(OC5(C)CC5)c4cn3)ccc2C(=O)OC1(C)C [Compound 90] | 1.1 to 10 | 3.42
25 | CC[C@@](C)(N)c1cnc(OC2(C)CC2)c2cnc(Nc3ccc4c(n3)[C@@H](C)[C@@H](C)OC4=O)cc12 [Compound 93] | 1.1 to 10 | 3.65
26 | C[C@H]1OC(=O)c2ccc(Nc3cc4c(C(C)(C)N)cnc(OC5CC5)c4cn3)nc2C12CC2 [Compound 119] | < 0.3 | 0.12
27 | CC[C@](C)(N)c1cnc(NC2CC2)c2cnc(Nc3ccc4c(n3)[C@@H](C)[C@H](C)OC4=O)cc12 [Compound 122] | < 0.3 | 0.16
28 | CC1(C)CCc2nc(Nc3cc4c(C(C)(C)N)cnc(OC5CC5)c4cn3)ccc2C(=O)O1 [Compound 125] | 1.1 to 10 | 1.84
29 | CC[C@H]1c2nc(Nc3cc4c(C(C)(C)N)cnc(OC5CC5)c4cn3)ccc2C(=O)O[C@H]1C [Compound 128] | 1.1 to 10 | 1.09
30 | CC[C@@H]1OC(=O)c2ccc(Nc3cc4c(C(C)(C)N)cnc(OC5CC5)c4cn3)nc2[C@H]1C [Compound 134] | 1.1 to 10 | 1.33
31 | CCCOc1ncc([C@](C)(N)CC)c2cc(Nc3ccc4c(n3)[C@@H](C)[C@H](C)OC4=O)ncc12 [Compound 142] | < 0.3 | 0.2
32 | C[C@@H]1OC(=O)c2ccc(Nc3cc4c([C@](C)(N)C5CC5)cnc(NC5CC5)c4cn3)nc2[C@H]1C [Compound 149] | < 0.3 | 0.2
33 | COc1ncc(C(C)(C)NC2CCC2)c2cc(Nc3ccc4c(n3)CC(C)(C)OC4=O)ncc12 [Compound 158, 2-((5-(2-(Cyclobutylamino)propan-2-yl)-8-methoxy-2,7-naphthyridin-3-yl)amino)-7,7-dimethyl-7,8-dihydro-5H-pyrano[4,3-b]pyridin-5-one] | 1.1 to 10 | 6.46
34 | C[C@@H]1OC(=O)c2ccc(Nc3cc4c(C(C)(C)N)cnc(O[C@H]5C[C@H](F)C5)c4cn3)nc2[C@H]1C [Compound 161] | 1.1 to 10 | 1.37
35 | C[C@@H]1OC(=O)c2ccc(Nc3cc4c(C(C)(C)N)cnc(OCC5(F)CC5)c4cn3)nc2[C@H]1C [Compound 162] | < 0.3 | 0.24
36 | C[C@@H]1OC(=O)c2ccc(Nc3cc4c(C(C)(C)N)cnc(O[C@H]5C[C@@H](F)C5)c4cn3)nc2[C@H]1C [Compound 163] | < 0.3 | 0.25
37 | CC1(C)Cc2nc(Nc3cc4c([C@@](C)(N)C5CCC5)cnc(OC5CC5)c4cn3)ccc2C(=O)O1 [Compound 169] | 1.1 to 10 | –
38 | CC1(Oc2ncc([C@](C)(N)C3CC3)c3cc(Nc4ccc5c(n4)C(C)(C)COC5=O)ncc23)CC1 [Compound 185] | 0.31 to 1 | 0.35
39 | CC[C@](C)(N)c1cnc(OC2CC2)c2cnc(Nc3ccc4c(n3)C3(CC3)[C@H](C)OC4=O)cc12 [Compound 187] | < 0.3 | 0.06
40 | CC(C)(N)c1cnc(OC2CC2)c2cnc(Nc3ccc4c(n3)C3(CC3)C(C)(C)OC4=O)cc12 [Compound 195] | < 0.3 | 0.27
41 | CC1(Oc2ncc(C(C)(C)N)c3cc(Nc4cnc5c(c4)C(=O)C(C)(C)OC5=O)ncc23)COC1 [Compound 198] | < 0.3 | 0.27
42 | CC[C@@H](N)c1cnc(C)c2cnc(Nc3ccc4c(n3)[C@@H](C)[C@H](C)OC4=O)cc12 [Compound 202] | 0.31 to 1 | 0.62
43 | CC[C@@H](N)c1cnc(OC)c2cnc(Nc3ccc4c(n3)[C@@H](C)[C@H](C)OC4=O)cc12 [Compound 203] | 0.31 to 1 | 0.5
44 | COC[C@@](C)(N)c1cnc(C)c2cnc(Nc3ccc4c(n3)[C@@H](C)C(C)(C)OC4=O)cc12 [Compound 206] | < 0.3 | 0.19
